Results: patent US20160311812A1, “ADENOSINE A1 AGONISTS AS MEDICAMENTS FOR KIDNEY DISORDERS” (BAYER PHARMA AKTIENGESELLSCHAFT, priority 2013, published 2016)

Columns and labels:
[1] = system: unilaterally nephrectomized SHR; experiment: Functional and structural renal dysfunction in unilaterally nephrectomized spontaneously hypertensive rats; format: in vivo, rat; details: Group 3: UNX + 10 mg/kg body weight/day in drinking water, 4 weeks
Excerpt: (§1) B-4. Effects of Partial A1 Agonists on Renal and Cardiac Function in Unilaterally Nephrectomized and Spontaneously Hypertensive Rats (Example 2 for Chronic Kidney Disorders)
(§2) Unilaterally nephrectomized, spontaneously hypertensive rats (SHR) are an established animal model for investigating the development and progression of hypertensive damage of the glomeruli in the remaining kidney [H. Kinuno et al., “Effects of uninephrectomy on renal structural properties in spontaneously hypertensive rats”, Clin and Exp Pharmacol and Physiol 2005, 32, 173-178]. […] Furthermore, renal excretion of substances usually eliminated in the urine, such as creatinine and urea, is reduced and the electrolyte metabolism is disturbed, the latter being associated with volume retention.
(§3) Procedure: male SHR rats (180-220 g) from Taconic had the left kidney removed in one session (=UNX). Normotensive Wistar Kyoto rats (WKY) from Taconic served as control. The following groups, each with 12 rats per group, were investigated:
(§4) Group 2 UNX+placebo (60 g glycerol+100 g water+969 g PEG-400)
(§5) Group 3 UNX+10 mg/kg body weight/day enalapril (reference therapy, in the drinking water)
(§6) Group 4 SNX+1.0 mg/kg body weight/day partial A1 EXAMPLE 1, p.o. in placebo
(§7) Group 5 SNX+3.0 mg/kg body weight/day partial A1 EXAMPLE 4, p.o. in placebo
(§8) Three weeks after unilateral nephrectomy, the SHRs developed manifest hypertensive damage of the glomeruli in the remaining kidney, from this time point on the rats were treated for a further four weeks corresponding to the groups given above. At the end of the protocol, the following samples were obtained/measurements were carried out: eight-hour urine collection, invasive measurement of systolic and diastolic left ventricular function, and TaqMan analyses of renal injury markers in the renal cortex.

[2] = system: 5/6 nephrectomy rat model; experiment: Left-ventricular diastolic dysfunction under isoprenaline infusion in 5/6 nephrectomized rats; format: in vivo; details: Group 3: SNX + 10 mg/kg body weight/day in drinking water, 4 weeks
Excerpt: (§9) B-3. Effects of Partial A1 Agonists on Renal and Cardiac Function in 5/6 Nephrectomized Rats (Example 1 for Chronic Kidney Disorder)
(§10) 5/6 nephrectomy in the rat, in which one kidney and the renal cortex of the second kidney are surgically removed (=5/6 of functional kidney tissue) is an established animal model for interstitial renal fibrosis and chronic renal insufficiency [C. Fleck et al., “Suitability of 5/6 nephrectomy (5/6NX) for the induction of interstitial renal fibrosis in rats Influence of sex, strain, and surgical procedure”, Exp. Tox. Pathology 2006, 57, 195-205]. The model is characterized by progressive proteinuria, disturbed tubular electrolyte transport, a reduced glomerular filtration rate, an increase in urinary output, interstitial fibrosis with reactively occurring lymphocyte infiltrates, glomerulosclerosis and tubular atrophy. The level of proteinuria is a specific index of the renal function prognosis: the higher the proteinuria, the greater is the functional and structural kidney injury and therefore progression of chronic to terminal renal insufficiency (uraemia). During monitoring of therapy, e.g. with the ACE inhibitor enalapril, the course of proteinuria provides information on the functional and structural response to the therapy and thus on the renal function prognosis. As a result of the renal insufficiency and accumulation of umemic toxins, in the animals there is secondary development of a umemic cardiomyopathy, depending on the severity associated with hypertension, increased heart rate, reduced parasympathetic tone, myocardial, left-ventricular hypertrophy and fibrosis, diastolic dysfunction and an increased prevalence of arrhythmias [Svilerova et al. 2010 Physiol Res 59: S81-S88).
(§11) Procedure: male Wistar:WU rats (210-250 g) from Charles River had the left kidney and the renal cortex of the right kidney removed (=SNX) in one session; sham-operated rats served as control group (=SOP). The following groups, each with 12 rats per group, were investigated:
(§12) Group 2 SNX+placebo (60 g glycerol+100 g water+969 g PEG-400)
(§13) Group 3 SNX+10 mg/kg body weight/day enalapril (reference therapy, in the drinking water)
(§14) Group 4 SNX+0.1 mg/kg body weight/day partial A1 agonist EXAMPLE 1, p.o. in placebo
(§15) Group 5 SNX+1.0 mg/kg body weight/day partial A1 agonist EXAMPLE 1, p.o. in placebo
(§16) Group 6 SNX+0.3 mg/kg body weight/day partial A1 agonist EXAMPLE 4, p.o. in placebo
(§17) Group 7 SNX+3.0 mg/kg body weight/day partial A1 agonist EXAMPLE 4, p.o. in placebo
(§18) Three weeks after 5/6 nephrectomy, the rats developed manifest proteinuria, from this time point the rats were treated for a further four weeks corresponding to the groups stated above. At the end of the protocol, the following samples were obtained/measurements were carried out: eight-hour urine collection with determination of the concentration of hFABP in the urine by ELISA (Rat/Mouse h-FABP ELISA, Hycultbiotech), as marker for end organ damage, invasive measurement of the isoprenaline-induced increase (cumulatively 12.5 ng-250 ng/kg isoprenaline, i.v.) in systolic and diastolic left ventricular function, and TaqMan analyses of renal injury markers in the renal cortex.

[3] = system: unilaterally nephrectomized SHR; experiment: Functional and structural myocardial dysfunction in unilaterally nephrectomized spontaneously hypertensive rats; format: in vivo, rat; details: Group 3: UNX + 10 mg/kg body weight/day in drinking water, 4 weeks
Excerpt: as §1, §2, §3, §4, §5, §6, §7, §8

[4] = system: 5/6 nephrectomy rat model; experiment: Functional and structural renal dysfunction in 5/6 nephrectomized rats; format: in vivo; details: Group 3: SNX + 10 mg/kg body weight/day in drinking water, 4 weeks
Excerpt: as §9, §10, §11, §12, §13, §14, §15, §16, §17, §18

`CCOC(=O)[C@H](CCc1ccccc1)N[C@@H](C)C(=O)N1CCC[C@H]1C(=O)O` [enalapril, reference compound] was tested, and the P-creatinine [1] was 62 ± 1.6 mmol/L, the P-urea [1] was 9.3 ± 0.4 mmol/L and the U-creatinine [1] was 1.5 ± 0.3 μmol/ml urine/kg BW/h. It also gave a U-protein [1] of 0.43 ± 0.07 μmol/ml urine/kg BW/h, a U-sodium [1] of 30 ± 5 μmol/ml urine/kg BW/h and a U-urea [1] of 153 ± 27 μmol/ml urine/kg BW/h. The Urine volume [1] was 2.4 ± 0.2 ml/kg BW/h, the “CYR61 [gene expression]” value ([1]; renal cortex) was 460 ± 55 rel. expression and the “Lipocalin-2 [gene expression]” value ([1]; renal cortex) was 140 ± 23 rel. expression. For the same molecule, the “left-ventricular pressure decrease as a function of time” value (“left-ventricular pressure decrease” for short) ([2]; isoprenaline 0 ng/kg body weight) was 6613 ± 226 mmHg/s, the “left-ventricular pressure decrease” value ([2]; isoprenaline 12.5 ng/kg body weight) was 7972 ± 280 mmHg/s and the “left-ventricular pressure decrease” value ([2]; isoprenaline 25 ng/kg body weight) was 8297 ± 285 mmHg/s. For the same molecule, the “left-ventricular pressure decrease” value ([2]; isoprenaline 50 ng/kg body weight) was 8705 ± 227 mmHg/s, the “left-ventricular pressure decrease” value ([2]; isoprenaline 100 ng/kg body weight) was 9267 ± 177 mmHg/s and the “left-ventricular pressure decrease” value ([2]; isoprenaline 250 ng/kg body weight) was 9359 ± 202 mmHg/s. The Diastolic blood pressure [3] was 91 ± 5 mmHg, the Heart rate [3] was 353 ± 7 beats/min and the “Left ventricular hypertrophy (LVS/RV ratio, mg/mg)” value [3] was 3.7 ± 0.2 mg/mg. The Left-ventricular end-diastolic pressure [3] was 5.4 ± 0.6 mmHg, the Left-ventricular pressure [3] was 130 ± 5 mmHg and the “Pressure decrease over time” value [3] was −10130 ± 239 mmHg/s. The “Pressure increase over time” value [3] was 8114 ± 304 mmHg/s, the Systolic blood pressure [3] was 132 ± 4 mmHg and the P-urea [4] was 15 ± 1 mmol/L. It also gave a U-creatinine [4] of 1.6 ± 0.2 μmol/ml urine/kg BW/h, a U-protein [4] of 0.25 ± 0.04 μmol/ml urine/kg BW/h and a U-sodium [4] of 18 ± 3 μmol/ml urine/kg BW/h. For the same molecule, the U-urea [4] was 198 ± 22 μmol/ml urine/kg BW/h, the Urine volume [4] was 2.8 ± 0.2 ml/kg BW/h and the “End organ injury marker concentration in the urine: hFABP” value ([4]; ELISA) was 377 ± 151 pg hFABP/ml urine/h. The “End organ injury marker concentration in the urine: hFABP per creatinine” value ([4]; ELISA) was 83 ± 33 pg hFABP/μmol creatinine, the “Kidney injury marker-1 [gene expression]” value ([4]; renal cortex) was 27 ± 17 rel. expression and the “Lipocalin-2 [gene expression]” value ([4]; renal cortex) was 400 ± 236 rel. expression. The “Osteopontin [gene expression]” value ([4]; renal cortex) was 6226 ± 4107 rel. expression.
